The text below walks through data of patent US6008245A, “Sulfonamide-substituted benzopyran derivatives, processes for their preparation, their use as a medicament, and pharmaceutical preparations comprising them” (priority 1997, dated 1999).

Each structure is given as a SMILES string. Bounds are passed on as bounds.

In general, IC50 refers to the concentration that inhibits the measured activity by half. Read a low IC50 as greater potency in that assay.

The target in one assay is T1, human IsK protein (UniProt P15382+P70057).
T1 construct: expressed in transfected cells; host or cells: Xenopus laevis oocytes injected with in vitro synthesized IsK RNA
As to the kind of experiment: cell-based. The conditions noted are these: human IsK expressed in Xenopus oocytes; voltage jumps to -10 mV lasting 15 s; pH 7.5; room temperature; Hill equation.
`CN([C@@H]1c2cc(OCc3ccccc3)ccc2OC(C)(C)[C@H]1O)S(C)(=O)=O` (racemic) [Example 1, (±)-trans-N-(6-Benzyloxy-3-hydroxy-2,2-dimethylchroman-4-yl)-N-methylmethanesulfonamide] displayed an IC50 of 200 nM.
`CC(=O)O[C@H]1[C@H](N(C)S(C)(=O)=O)c2cc(OCc3ccccc3)ccc2OC1(C)C` (racemic) [Example 2, (±)-trans-N-(6-Benzyloxy-3-acetoxy-2,2-dimethylchroman-4-yl)-N-methyl-methanesulfonamide]: the midpoint of inhibition, the IC50, lay at 13000 nM.
For the molecule `CO[C@H]1[C@H](N(C)S(C)(=O)=O)c2cc(OCc3ccccc3)ccc2OC1(C)C` (racemic) [Example 3, (±)-trans-N-(6-Benzyloxy-3-methoxy-2,2-dimethylchroman-4-yl)-N-methyl-methanesulfonamide], the midpoint of inhibition, the IC50, lay at 6500 nM.
On the same count and under the same terms, for `CCCCOc1ccc2c(c1)[C@@H](N(C)S(C)(=O)=O)[C@H](O)C(C)(C)O2` (racemic) [Example 5, (±)-trans-N-(6-Butoxy-3-hydroxy-2,2-dimethylchroman-4-yl)-N-methyl-methanesulfonamide] the value was 250 nM.
`CCCCOc1ccc2c(c1)[C@@H](N(C)S(C)(=O)=O)[C@H](OC(C)=O)C(C)(C)O2` (racemic) [Example 6, (±)-trans-N-(3-Acetoxy-6-butoxy-2,2-dimethylchroman-4-yl)-N-methyl-methanesulfonamide] returned a half-inhibitory concentration (IC50) greater than 10000 nM.
In the case of `CCCCN([C@@H]1c2cc(OCc3ccccc3)ccc2OC(C)(C)[C@H]1O)S(C)(=O)=O` (racemic) [Example 10, (±)-trans-N-(6-Benzyloxy-3-hydroxy-2,2-dimethylchroman-4-yl)-N-butyl-methanesulfonamide], inhibition was half-maximal at 400 nM (IC50).
Same read-out and setting: for `COC(=O)CN([C@@H]1c2cc(OCc3ccccc3)ccc2OC(C)(C)[C@H]1O)S(C)(=O)=O` (racemic) [Example 12, Methyl (±)-trans-[(6-benzyloxy-3-hydroxy-2,2-dimethylchroman-4-yl)-methanesulfonylamino]acetate] the value was 800 nM.
The molecule `CCCCOc1ccc2c(c1)[C@@H](N(CC)S(C)(=O)=O)[C@H](O)C(C)(C)O2` (racemic) [Example 14, (±)-trans-N-(6-Butoxy-3-hydroxy-2,2-dimethylchroman-4-yl)-N-ethyl-methanesulfonamide] registered an IC50 of 200 nM.
In turn, `CC(=O)O[C@H]1[C@H](N(C)S(C)(=O)=O)c2cc(OCCCC(F)(F)F)ccc2OC1(C)C` (racemic) [Example 21, (±)-trans-N-[3-Acetoxy-6-(4,4,4-trifluorobutoxy)-2,2-dimethylchroman-4-yl]-N-methyl-methanesulfonamide] came in with an IC50 of roughly 10000 nM.
Molecule `CN(C1=CC(C)(C)Oc2ccc(OCc3ccccc3)cc21)S(C)(=O)=O` [Example 4, N-(6-Benzyloxy-2,2-dimethyl-2H-chromen-4-yl)-N-methyl-methanesulfonamide] returned an IC50 of 1600 nM.
`CCCCOc1ccc2c(c1)C(N(C)S(C)(=O)=O)=CC(C)(C)O2` [Example 7, N-(6-Butoxy-2,2-dimethyl-2H-chromen-4-yl)-N-methyl-methanesulfonamide] had an IC50 of 1600 nM.
`CCCOc1ccc2c(c1)C(N(C)S(C)(=O)=O)=CC(C)(C)O2` [Example 9, N-(6-Propoxy-2,2-dimethyl-2H-chromen-4-yl)-N-methyl-methanesulfonamide]: inhibition was half-maximal at 2600 nM (IC50).
Regarding `CCCCN(C1=CC(C)(C)Oc2ccc(OCc3ccccc3)cc21)S(C)(=O)=O` [Example 11], the IC50 amounted to 1600 nM.
On the same count and under the same terms, for `CCCCOc1ccc2c(c1)C(N(CC)S(C)(=O)=O)=CC(C)(C)O2` [Example 15, N-(6-Butoxy-2,2-dimethyl-2H-chromen-4-yl)-N-ethyl-methanesulfonamide] the value was 1300 nM; for `CCCCOc1ccc2c(c1)[C@@H](N(C)S(C)(=O)=O)[C@H](O)C(C)(C)O2` [Example 16, (3S, 4R)-(-)-N-(6-Butoxy-3-hydroxy-2,2-dimethylchroman-4-yl)-N-methyl-methanesulfonamide], 400 nM.
As for `CCS(=O)(=O)N(C)[C@@H]1c2cc(OCc3ccccc3)ccc2OC(C)(C)[C@H]1O` [Example 17, (3S, 4R)-(-)-N-(6-Benzyloxy-3-hydroxy-2,2-dimethylchroman-4-yl)-N-methyl-ethanesulfonamide], 400 nM corresponded to half-maximal inhibition (IC50).
Same read-out and setting: then `CCS(=O)(=O)N(C)[C@H]1c2cc(OCCCC(F)(F)F)ccc2OC(C)(C)[C@@H]1O` [Example 18, (3R, 4S)-(+)-N-[-3-Hydroxy-2,2-dimethyl-6-(4,4,4-trifluorobutoxy)chroman-4-yl]-N-methyl-ethanesulfonamide], with 100 nM.
For the molecule `CN(C1=CC(C)(C)Oc2ccc(OCCCC(F)(F)F)cc21)S(C)(=O)=O` [Example 22, N-[6-(4,4,4-Trifluorobutoxy)-2,2-dimethyl-2H-chromen-4-yl]-N-methyl-methanesulfonamide], the IC50 was determined as 600 nM.
For the molecule `CC1(C)Oc2ccc(OCCCC(F)(F)F)cc2[C@H](NS(C)(=O)=O)[C@H]1O` [Example 23a, (3R,4S)-N-[3-Hydroxy-2,2-dimethyl-6-(4,4,4-trifluoro-butoxy)-chroman-4-yl]-methanesulfonamide], it took 1700 nM to reach half-maximal inhibition (IC50).

A further assay deals with K+ (ATP) channel.
Assay: not given
The conditions noted are these: known compounds; cited from earlier work.
With `CC1(C)Oc2ccc(C#N)cc2[C@@H](N2CCCC2=O)[C@@H]1O` (relative stereo) [cromakalim], the “action on ATP-sensitive K+ channels” value is “openers of ATP-sensitive K^+ channels”.

A further assay relates to IKs.
Assay: not given
Conditions: cited from earlier work.
Turning to `CN1CCN(CCCCN2C(=O)CN(/N=C/c3ccc(-c4ccc(Cl)cc4)o3)C2=O)CC1` [azimilide], the “blocking action on the IKs” value is recorded as “blocking action on the IKs”.

Another assay relates to IKr.
Assay: not given
The conditions noted are these: class III antiarrhythmics; cited from earlier work.
As for `CC(C)NC[C@@H](O)c1ccc(NS(C)(=O)=O)cc1` [d-sotalol], the IKr block result was “block IKr predominantly or exclusively”.
